The test system of one experiment is U251. The experiment in a line: NCI-60 growth inhibition (sulforhodamine B). Particulars: U251 (CNS Cancer), negative log of Molar conc., LCONC -8. The experiment is classed as cell-based, human.
For the next experiment, the system named is OVCAR-5. The experiment in a line: NCI-60 growth inhibition (sulforhodamine B). The experiment is classed as cell-based, human. Conditions: OVCAR-5 (Ovarian Cancer), negative log of Molar conc., LCONC -8.
The subject of experiment [1] is histone H3 acetylation in MCF-10A cells (PANK4 KO+WT, KO+EV). Nature of the experiment: Western blot of H3K18Ac and H3K23Ac in MCF-10A PANK4 KO+WT and KO+EV cells. Conditions: 3 h, 1 at micromolar and 3 at nanomolar concentrations. Format: cell-based, human. The text has this:
Recently, we reported the discovery of a phosphorylation-dependent signaling cascade that can upregulate CoA biosynthesis in human cells by inhibiting the activity of PANK4, a negative regulator of this pathway (Fig. 4a).[34] This occurs via PANK4’s ability to reverse the rate-limiting step in CoA production, which is phosphorylation of pantothenate (vitamin B5) by PANK1–3.[35] […] Considering how to resolve these mechanisms, we wondered if this may be an area where knowledge of the comparative pharmacology of EP300/CREBBP inhibitors could be usefully leveraged. Specifically, we hypothesized that if PANK4 inactivation (knockout; KO) led to a resistance mechanism dependent on EP300/CREBBP active site occupancy (e.g. competitive binding), then the differential potency of 1 and 3 would be preserved – albeit over a shifted concentration range – in the resistant PANK4 KO cell line (Fig. 4b). […] To correlate these observations with the effect of the compounds on cellular acetyltransferase activity, we monitored histone H3 acetylation at an EP300/CREBBP-dependent site (H3K18Ac) and EP300/CREBBP-independent site (H3K23Ac). […]
Histone samples were quantified using the Precision Red Protein Assay (Cytoskeleton #ADV02). […]
Background: A western blot detects proteins with antibodies after separation by electrophoresis.

A further experiment deals with HOP-62. The experiment in a line: NCI-60 growth inhibition (sulforhodamine B). Format: cell-based, human.
The test system of another experiment is MOLT-4. The experiment in a line: NCI-60 growth inhibition (sulforhodamine B). Format: cell-based, human. Conditions: MOLT-4 (Leukemia), negative log of Molar conc., LCONC -8.
Another experiment concerns HS578T. The experiment in a line: NCI-60 growth inhibition (sulforhodamine B). The experiment is classed as cell-based. Particulars: Homo sapiens.
The next experiment deals with SR. Nature of the experiment: NCI-60 growth inhibition (sulforhodamine B). The experiment is classed as cell-based, human. Particulars: SR (Leukemia), negative log of Molar conc., LCONC -8.
Where [2] appears, read: Homo sapiens, read-out: GI50 NLOGVALUE
Where [3] appears, read: Homo sapiens, read-out: IC50 NLOGVALUE (converted).

The values below come from doi:10.1101/2023.05.15.540887, “Comparative analysis of drug-like EP300/CREBBP acetyltransferase inhibitors” (bioRxiv, 2023).

Read-outs that look alike come from different tables or passages of the source. A value given as a limit tells only on which side of the number the result lay.

As to `C[C@H](CN[C@@H](C(=O)Nc1ccc(-c2cnn(C)c2)cn1)c1ccccc1)c1ccc(C#N)cc1` [CPI-1612], the 50% growth inhibitory concentration (GI50) is 2.34 µM in the experiment with U251 (Homo sapiens, U-251, read-out: GI50 NLOGVALUE (converted)); over 100 µM in the experiment on OVCAR-5 (setting [2]); 1.95 µM in the experiment with HOP-62 (Homo sapiens, HOP-62, read-out: GI50 AVGDATA (converted)); 1.91 µM in the experiment with HOP-62 (Homo sapiens, HOP-62 (Non-Small Cell Lung Cancer), negative log of Molar conc., LCONC -8, read-out: GI50 NLOGVALUE (converted)); under 0.01 µM with MOLT-4 (setting [2]); 0.0138 µM in the experiment with HS578T (Hs-578T, read-out: GI50 AVGDATA (converted)). The GI50 in the experiment on HS578T (HS 578T, Breast Cancer, negative log of Molar value, LCONC -8, EXPID 2301NS84, read-out: GI50 NLOGVALUE (converted)) is 0.0141 µM; in the experiment with SR (Homo sapiens, read-out: GI50 NLOGVALUE (converted)), 1.86 µM. The IC50 in the experiment on U251 (Homo sapiens, U-251, read-out: IC50 NLOGVALUE (converted)) was 28.8 µM; with OVCAR-5 (Homo sapiens, read-out: IC50 NLOGVALUE), over 100 µM; in the experiment on HOP-62 (Homo sapiens, HOP-62 (Non-Small Cell Lung Cancer), negative log of Molar conc., LCONC -8, read-out: IC50 NLOGVALUE) it was over 100 µM; with MOLT-4 (setting [3]) it was 0.0209 µM; in the experiment on HS578T (HS 578T, Breast Cancer, negative log of Molar value, LCONC -8, EXPID 2301NS84, read-out: IC50 NLOGVALUE) it was over 100 µM; with SR (setting [3]) it was 56.2 µM. Also, the CC50 in the experiment with U251 (Homo sapiens, U-251, read-out: LC50 NLOGVALUE) is over 100 µM; in the experiment with OVCAR-5 (Homo sapiens, read-out: LC50 NLOGVALUE), over 100 µM; in the experiment on HOP-62 (Homo sapiens, HOP-62 (Non-Small Cell Lung Cancer), negative log of Molar conc., LCONC -8, read-out: LC50 NLOGVALUE), over 100 µM; in the experiment with HS578T (HS 578T, Breast Cancer, negative log of Molar value, LCONC -8, EXPID 2301NS84, read-out: LC50 NLOGVALUE), over 100 µM. Also, the “TGI NLOGVALUE” was 4 in the experiment on U251; 4 in the experiment with OVCAR-5; 4 in the experiment with HOP-62 (HOP-62 (Non-Small Cell Lung Cancer), negative log of Molar conc., LCONC -8); 4.53 in the experiment with MOLT-4; 4 with SR. The “effect on H3K18Ac, PANK4 KO+EV versus KO+WT” value in experiment [1] was “PANK4 KO lessening the effects”.

A word on the GI50: it is the concentration that inhibits growth by half. Broadly, the IC50 is the concentration that inhibits the measured activity by half.
